Data: US20020137929A1, “1 - (3-heterocyclylphenyl) isothiourea, -isourea, -guanidine and -amidine herbicidal agents” (Intellectual Property Department, BASF Aktiengesellschaft, priority 1998, published 2002)

Experiments:
GALAP (Galium) = test: Preemergence herbicidal evaluation; type: in vivo, Galium aparine; settings: rated 4-5 weeks after treatment
Summary of the method: (§1)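 Test compound, dissolved in aqueous acetone, was sprayed over planted soil cups at an equivalent of about 0.0156 to 0.500 kg/ha; seeds had been mixed with potting soil. Greenhouse growth followed, with visual 0-9 scoring of injury at four to five weeks.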

CYPSE (Flatsedge) = test: Postemergence weed control under flooded paddy conditions; type: in vivo, Cyperus serotinus; settings: postemergence weeds, rated 3 to 4 weeks after treatment
Summary of the method: (§2)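 Herbicidal effect is judged by eye on a 0–9 scale versus control, 3–4 weeks after dosing. Dosing is into flood water kept 1.5–3 cm over the soil, at about 0.0313–0.500 kg/ha in aqueous/acetone 50/50 v/v, on 3–5 cm weeds and 1.5–2.5-leaf rice seedlings.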

ORYSAT (Rice, Tebonnet) = test: Postemergence herbicidal evaluation; type: in vivo, Oryza sativa, (L.) Tebonnet; settings: postemergence
Summary of the method: (§3)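 Visual 0-9 injury score (stand, vigor, malformation, size, chlorosis, appearance vs untreated) taken four to five weeks post-spray, averaged across repeat tests. Test plants about two weeks old; foliar spray of acetone/water (1:1) with 0.5% surfactant delivering ~0.0156-0.500 kg active/ha.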

[1] = tested on: ECHORC (Watergrass (Calif.)); test: Postemergence weed control under flooded paddy conditions; type: in vivo, Echinochloa oryzoides; settings: postemergence weeds, rated 3 to 4 weeks after treatment
Summary of the method: as §2

[2] = tested on: GLXMAW (Soybean, Williams); test: Postemergence herbicidal evaluation; type: in vivo, Glycine max, (L.) Merr. cv Williams; settings: postemergence
Summary of the method: as §3

[3] = tested on: CHEAL (Lambsquarters, Common); test: Postemergence herbicidal evaluation; type: in vivo, Chenopodium album; settings: postemergence
Summary of the method: as §3

AMBEL (Ragweed, Common) = test: Preemergence herbicidal evaluation; type: in vivo, Ambrosia artemisifolia; settings: rated 4-5 weeks after treatment
Summary of the method: as §1

ZEAMX (Corn, Field) = test: Postemergence herbicidal evaluation; type: in vivo, Zea mays; settings: postemergence
Summary of the method: as §3

[4] = tested on: SAGPY (Arrowhead (Pygmaea)); test: Postemergence weed control under flooded paddy conditions; type: in vivo, Sagittaria pygmaea; settings: postemergence weeds, rated 3 to 4 weeks after treatment
Summary of the method: as §2

[5] = tested on: TRZAWR (Wheat, Winter, cv Riband); test: Postemergence herbicidal evaluation; type: in vivo, Triticum aestivum; settings: postemergence
Summary of the method: as §3

ABUTH (Velvetleaf) = test: Postemergence herbicidal evaluation; type: in vivo, Abutilon theophrasti; settings: postemergence
Summary of the method: as §3

SETVI (Foxtail, Green) [6] = test: Preemergence herbicidal evaluation; type: in vivo, Setaria viridis; settings: rated 4-5 weeks after treatment
Summary of the method: as §1

CYPIR (Rice Flatsedge) = test: Preemergence weed control under flooded paddy conditions; type: in vivo, Cyperus iria; settings: rated 3-4 weeks after treatment
Summary of the method: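 Herbicidal effect is scored visually on a 0-9 scale against an untreated control, three to four weeks after compounds are pipetted into the flood water (1.5 to 3 cm deep) over seeds planted in silt loam at 0.5 cm depth. Rates: about 0.0313 to 0.500 kg/ha.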

SETVI (Foxtail, Green) [7] = test: Postemergence herbicidal evaluation; type: in vivo, Setaria viridis; settings: postemergence
Summary of the method: as §3

Compound: CC(C)S(=O)(=O)NC(=O)CC1SC(=Nc2cc(-n3c(=O)cc(C(F)(F)F)n(C)c3=O)c(F)cc2Cl)N(C)C1=O (stereo not drawn) [Compound 119, 2-{{2-Chloro-5-[3,6-dihydro-3-methyl-2,6-dioxo-4-(trifluoromethyl)-1(2H)-pyrimidinyl]-4-fluorophenyl}imino}-N-(isopropylsulfonyl)-3-methyl-4-oxo-5-thiazolidineacetamide]
- Preemergence herbicidal rating GALAP (GALAP (Galium); rate 0.0156 kg/ha): 0.0
- Preemergence herbicidal rating GALAP (GALAP (Galium); rate 0.0313 kg/ha): 0.0
- Preemergence herbicidal rating GALAP (GALAP (Galium); rate 0.0625 kg/ha): 0.0
- Preemergence herbicidal rating GALAP (GALAP (Galium); rate 0.1250 kg/ha): 0.0
- Preemergence herbicidal rating GALAP (GALAP (Galium); rate 0.2500 kg/ha): 4.0
- Herbicidal rating CYPSE (CYPSE (Flatsedge); Rate 0.0313 kg/ha): 0.0
- Herbicidal rating CYPSE (CYPSE (Flatsedge); Rate 0.0625 kg/ha): 0.0
- Herbicidal rating CYPSE (CYPSE (Flatsedge); Rate 0.1250 kg/ha): 0.0
- Herbicidal rating ORYSAT (ORYSAT (Rice, Tebonnet); rate 0.0156 kg/ha): 1.5
- Herbicidal rating ORYSAT (ORYSAT (Rice, Tebonnet); rate 0.0313 kg/ha): 2.0
- Herbicidal rating ORYSAT (ORYSAT (Rice, Tebonnet); rate 0.0625 kg/ha): 3.0
- Herbicidal rating ECHORC ([1]; Rate 0.0313 kg/ha): 0.0
- Herbicidal rating ECHORC ([1]; Rate 0.0625 kg/ha): 2.0
- Herbicidal rating ECHORC ([1]; Rate 0.1250 kg/ha): 4.0
- Herbicidal rating ECHORC ([1]; Rate 0.2500 kg/ha): 4.0
- Herbicidal rating GLXMAW ([2]; rate 0.0156 kg/ha): 7.0
- Herbicidal rating GLXMAW ([2]; rate 0.0313 kg/ha): 8.5
- Herbicidal rating GLXMAW ([2]; rate 0.0625 kg/ha): 8.5
- Herbicidal rating CHEAL ([3]; rate 0.0156 kg/ha): 9.0
- Herbicidal rating CHEAL ([3]; rate 0.0313 kg/ha): 9.0
- Herbicidal rating CHEAL ([3]; rate 0.0625 kg/ha): 9.0
- Preemergence herbicidal rating AMBEL (AMBEL (Ragweed, Common); rate 0.0156 kg/ha): 0.0
- Preemergence herbicidal rating AMBEL (AMBEL (Ragweed, Common); rate 0.0313 kg/ha): 0.0
- Preemergence herbicidal rating AMBEL (AMBEL (Ragweed, Common); rate 0.0625 kg/ha): 0.0
- Preemergence herbicidal rating AMBEL (AMBEL (Ragweed, Common); rate 0.1250 kg/ha): 4.0
- Preemergence herbicidal rating AMBEL (AMBEL (Ragweed, Common); rate 0.2500 kg/ha): 4.0
- Herbicidal rating ZEAMX (ZEAMX (Corn, Field); rate 0.0156 kg/ha): 4.5
- Herbicidal rating ZEAMX (ZEAMX (Corn, Field); rate 0.0313 kg/ha): 5.5
- Herbicidal rating ZEAMX (ZEAMX (Corn, Field); rate 0.0625 kg/ha): 6.0
- Herbicidal rating SAGPY ([4]; Rate 0.0313 kg/ha): 0.0
- Herbicidal rating SAGPY ([4]; Rate 0.0625 kg/ha): 0.0
- Herbicidal rating SAGPY ([4]; Rate 0.1250 kg/ha): 0.0
- Herbicidal rating SAGPY ([4]; Rate 0.2500 kg/ha): 0.0
- Herbicidal rating TRZAWR ([5]; rate 0.0156 kg/ha): 2.5
- Herbicidal rating TRZAWR ([5]; rate 0.0313 kg/ha): 3.5
- Herbicidal rating TRZAWR ([5]; rate 0.0625 kg/ha): 3.5
- Herbicidal rating ABUTH (ABUTH (Velvetleaf); rate 0.0156 kg/ha): 9.0
- Herbicidal rating ABUTH (ABUTH (Velvetleaf); rate 0.0313 kg/ha): 9.0
- Herbicidal rating ABUTH (ABUTH (Velvetleaf); rate 0.0625 kg/ha): 9.0
- Preemergence herbicidal rating SETVI (SETVI (Foxtail, Green) [6]; rate 0.0156 kg/ha): 0.0
- Preemergence herbicidal rating SETVI (SETVI (Foxtail, Green) [6]; rate 0.0313 kg/ha): 0.0
- Preemergence herbicidal rating SETVI (SETVI (Foxtail, Green) [6]; rate 0.0625 kg/ha): 2.0
- Preemergence herbicidal rating SETVI (SETVI (Foxtail, Green) [6]; rate 0.1250 kg/ha): 7.0
- Preemergence herbicidal rating SETVI (SETVI (Foxtail, Green) [6]; rate 0.2500 kg/ha): 7.0
- herbicidal effect rating, CYPIR (CYPIR (Rice Flatsedge); 0.0313 kg/ha): 4.5
- herbicidal effect rating, CYPIR (CYPIR (Rice Flatsedge); 0.0625 kg/ha): 7.0
- herbicidal effect rating, CYPIR (CYPIR (Rice Flatsedge); 0.1250 kg/ha): 8.5
- herbicidal effect rating, CYPIR (CYPIR (Rice Flatsedge); 0.2500 kg/ha): 8.0
- Herbicidal rating SETVI (SETVI (Foxtail, Green) [7]; rate 0.0156 kg/ha): 3.0
- Herbicidal rating SETVI (SETVI (Foxtail, Green) [7]; rate 0.0313 kg/ha): 9.0
- Herbicidal rating SETVI (SETVI (Foxtail, Green) [7]; rate 0.0625 kg/ha): 9.0

Compound: C[C@H](C(=O)O)N1C(=O)CSC1=Nc1cc(-n2c(=O)cc(C(F)(F)F)n(C)c2=O)c(F)cc1Cl [Compound 70, 2-{{2-Chloro-5-[3,6-dihydro-3-methyl-2,6-dioxo-4-(trifluoromethyl)-1(2H)-pyrimidinyl]-4-fluoro-phenyl}imino}-α-methyl-4-oxo-3-thiazolidineacetic acid, D-]
- Preemergence herbicidal rating GALAP (GALAP (Galium); rate 0.0156 kg/ha): 0.0
- Preemergence herbicidal rating GALAP (GALAP (Galium); rate 0.0313 kg/ha): 0.0
- Preemergence herbicidal rating GALAP (GALAP (Galium); rate 0.0625 kg/ha): 0.0
- Preemergence herbicidal rating GALAP (GALAP (Galium); rate 0.1250 kg/ha): 0.0
- Preemergence herbicidal rating GALAP (GALAP (Galium); rate 0.2500 kg/ha): 0.0
- Herbicidal rating CYPSE (CYPSE (Flatsedge); Rate 0.0313 kg/ha): 0.0
- Herbicidal rating CYPSE (CYPSE (Flatsedge); Rate 0.0625 kg/ha): 0.0
- Herbicidal rating CYPSE (CYPSE (Flatsedge); Rate 0.1250 kg/ha): 0.0
- Herbicidal rating CYPSE (CYPSE (Flatsedge); Rate 0.2500 kg/ha): 3.0
- ORYSAT herbicidal rating (ORYSAT (Rice, Tebonnet); rate 0.0158 kg/ha): 2.5
- ORYSAT herbicidal rating (ORYSAT (Rice, Tebonnet); rate 0.0315 kg/ha): 3.5
- ORYSAT herbicidal rating (ORYSAT (Rice, Tebonnet); rate 0.0630 kg/ha): 5.0
- Herbicidal rating ECHORC ([1]; Rate 0.0313 kg/ha): 0.0
- Herbicidal rating ECHORC ([1]; Rate 0.0625 kg/ha): 0.0
- Herbicidal rating ECHORC ([1]; Rate 0.1250 kg/ha): 0.0
- Herbicidal rating ECHORC ([1]; Rate 0.2500 kg/ha): 0.0
- GLXMAW herbicidal rating ([2]; rate 0.0158 kg/ha): 4.5
- GLXMAW herbicidal rating ([2]; rate 0.0315 kg/ha): 5.5
- GLXMAW herbicidal rating ([2]; rate 0.0630 kg/ha): 7.0
- CHEAL herbicidal rating ([3]; rate 0.0158 kg/ha): 4.0
- CHEAL herbicidal rating ([3]; rate 0.0315 kg/ha): 9.0
- Preemergence herbicidal rating AMBEL (AMBEL (Ragweed, Common); rate 0.0156 kg/ha): 0.0
- Preemergence herbicidal rating AMBEL (AMBEL (Ragweed, Common); rate 0.0313 kg/ha): 0.0
- Preemergence herbicidal rating AMBEL (AMBEL (Ragweed, Common); rate 0.0625 kg/ha): 0.0
- Preemergence herbicidal rating AMBEL (AMBEL (Ragweed, Common); rate 0.1250 kg/ha): 3.0
- Preemergence herbicidal rating AMBEL (AMBEL (Ragweed, Common); rate 0.2500 kg/ha): 9.0
- ZEAMX herbicidal rating (ZEAMX (Corn, Field); rate 0.0158 kg/ha): 4.0
- ZEAMX herbicidal rating (ZEAMX (Corn, Field); rate 0.0315 kg/ha): 5.5
- ZEAMX herbicidal rating (ZEAMX (Corn, Field); rate 0.0630 kg/ha): 7.0
- Herbicidal rating SAGPY ([4]; Rate 0.0313 kg/ha): 4.0
- Herbicidal rating SAGPY ([4]; Rate 0.0625 kg/ha): 4.0
- Herbicidal rating SAGPY ([4]; Rate 0.1250 kg/ha): 4.0
- Herbicidal rating SAGPY ([4]; Rate 0.2500 kg/ha): 4.0
- TRZAWR herbicidal rating ([5]; rate 0.0158 kg/ha): 2.5
- TRZAWR herbicidal rating ([5]; rate 0.0315 kg/ha): 4.0
- TRZAWR herbicidal rating ([5]; rate 0.0630 kg/ha): 5.5
- ABUTH herbicidal rating (ABUTH (Velvetleaf); rate 0.0158 kg/ha): 1.0
- ABUTH herbicidal rating (ABUTH (Velvetleaf); rate 0.0315 kg/ha): 6.0
- ABUTH herbicidal rating (ABUTH (Velvetleaf); rate 0.0630 kg/ha): 9.0
- Preemergence herbicidal rating SETVI (SETVI (Foxtail, Green) [6]; rate 0.0156 kg/ha): 0.0
- Preemergence herbicidal rating SETVI (SETVI (Foxtail, Green) [6]; rate 0.0313 kg/ha): 0.0
- Preemergence herbicidal rating SETVI (SETVI (Foxtail, Green) [6]; rate 0.0625 kg/ha): 2.0
- Preemergence herbicidal rating SETVI (SETVI (Foxtail, Green) [6]; rate 0.1250 kg/ha): 9.0
- Preemergence herbicidal rating SETVI (SETVI (Foxtail, Green) [6]; rate 0.2500 kg/ha): 9.0
- CYPIR herbicidal effect rating (CYPIR (Rice Flatsedge); 0.0313 kg/ha): 0.0
- CYPIR herbicidal effect rating (CYPIR (Rice Flatsedge); 0.0625 kg/ha): 2.0
- CYPIR herbicidal effect rating (CYPIR (Rice Flatsedge); 0.1250 kg/ha): 2.0
- CYPIR herbicidal effect rating (CYPIR (Rice Flatsedge); 0.2500 kg/ha): 2.0
- SETVI herbicidal rating (SETVI (Foxtail, Green) [7]; rate 0.0158 kg/ha): 1.0
- SETVI herbicidal rating (SETVI (Foxtail, Green) [7]; rate 0.0315 kg/ha): 2.0
- SETVI herbicidal rating (SETVI (Foxtail, Green) [7]; rate 0.0630 kg/ha): 9.0
